This is an account of results in patent US20250108119A1, “NOVEL STEROID PAYLOADS, STEROID LINKERS, ADCs CONTAINING AND USE THEREOF” (IMMUNEXT, INC., priority 2021, published 2025).

The structures appear in SMILES notation. “Also recorded” adds a separate entry of the source.

In one data set the test system is human PBMC. The experiment in a line: Cytokine production (IL-1β, IL-6) at 24 hr by human PBMC incubated with 1 ng/mL LPS. It counts as cell-based. The note with it: free steroid payloads, serial dilutions, 1 ng/mL LPS, 24 hr. The method, boiled down:
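Human PBMC were stimulated with 1 ng/mL LPS together with serial dilutions of steroid payloads or glucocorticoid conjugates, spanning up to 8,000 nM down to 0.032 nM depending on the series. IL-1β and IL-6 were measured at 24 hr from technical duplicates, with 1-2 donors. Values above the ULOQ were extrapolated.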

Data set [1] has as its system LPS stimulated human PBMCs. The experiment in a line: LPS stimulated human PBMC, IL-1β and IL-6 ELISA. It is filed as cell-based. In short, it runs like this:
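Human PBMC (1-2 healthy donors), 150,000 cells/well, treated with test agents at 1,000 nM down to 1 nM or 0.2 nM, in duplicate. LPS at 1 ng/ml added immediately after free payload or 4 h after conjugates; IL-1β and IL-6 in supernatants measured by ELISA.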

Data set [2] deals with FKBP5. The experiment in a line: FKBP5 transcription in isolated human monocytes, B cells and Tregs. It counts as cell-based. An excerpt:
Monocytes or B cells were isolated from healthy donor blood samples and treated with free steroid, anti-VISTA conjugated steroid, or conjugated isotype control. RNA was isolated, and change in FKBP5 transcript level assessed by qPCR.
The various immune populations were isolated using different cell isolation kits and following manufacturer instructions: • EasySep Human monocyte enrichment kit without CD16 depletion (StemCell cat #19058) • Pan B cell isolation kit, human (Miltenyi Biotec, 130-101-638). • EasySep™ Human CD4+CD127 low CD49d-regulatory T cell enrichment Kit (StemCell cat #19232)
Monocytes, B cells or Tregs were plated (from single donors) at 2×10^6 cells per well in a 12-well plate in RPMI, 10% human AB serum, 10 mM Hepes, 1× Penicillin/Streptomycin/Glutamine.
For single dose experiments, cells were treated with 20 nM free J payload or INX-SM-3 payload or the molar payload equivalent of huIgG1si J, INX201J or INX231P (the linked form of INX-SM-3). […]
After one wash with PBS, RNA was isolated from cell pellets using either the RNeasy Plus Mini kit (Qiagen, PN: 74136) or NucleoSpin RNA Plus (Macherey-Nagel #740984.250). […] RNA concentration was assessed by UV spectroscopy using a Nanodrop 2000. […]
Quantitative Real-Time PCR was done using Taqman master mix 2× kit (#4369016) and run on a QuantStudio3 from Applied Biosystem. […]

Data set [3] relates to peritoneal resident macrophages (PRM). As to the kind of experiment: In vivo treatment/ex vivo PRM activation, TNFα and IL-6 in supernatant. As to conditions: linker/payloads as anti-VISTA conjugates. Also noted: species or system hVISTA mice. On the procedure:
Based thereon we developed a model to allow us to evaluate long-term anti-inflammatory impact of ADC on specific target populations, such as PRMs. […] In the absence of GC treatment, after 2h PRMs become highly activated as shown by increases in cytokine production. […] The objective of these studies was to evaluate the efficacy and pharmacodynamic range of INX human VISTA antibodies conjugated to a glucocorticoid payload as compared to free Dex.
After euthanasia, mice were injected in the peritoneal cavity with 7 ml of PBS/0.5% BSA/2 mM EDTA. After a brief massage of the peritoneum, a small incision was performed and the peritoneal lavage collected. PRM were isolated using negative selection (Miltenyi kit, ref 130-110-434). Spleen were dissected and dissociated mechanically; monocytes were isolated using […] (Stem Cell, EasySep™ Mouse CD11b Positive Selection Kit II).
PRMs were resuspended in RPMI 1640 with 10% FBS, 10 mM Hepes, Penicillin/Streptomycin and glutamine and 100,000 cells were plated per well in a 96-well tissue culture plate. Supernatants were collected at 2 and 24h post plating and stored at −80° C. […]
• BioLegend (cat #430904) ELISA MAX Deluxe Set Mouse TNF-α • BioLegend (cat #431304) ELISA MAX Deluxe Set Mouse IL-6
ELISAs were conducted following the manufacturer's included protocol.

In data set [4] the test system is FKBP5. As to the kind of experiment: FKBP5 transcription in peritoneal resident macrophages (PRM) and spleen cells after in vivo treatment. On the set-up: species or system hVISTA mice. As to conditions: linker payloads as anti-VISTA conjugates.
Data set [5] in a line: Linker payload and released payload in serum and peripheral blood leukocytes (MS). It is filed as in vivo, cynomolgus monkey. The note with it: INX234P 15 mg/Kg i.v., analyte as labelled. On the procedure: MS quantification was performed by Quintara Discovery on cell pellets and on serum.
Briefly, cell pellets were suspended with 100 μL of 20% methanol.
Normalization of the data to cell volume (ng/ml) was done by first calculating the cell numbers based on the PBL or WBC hematological count and the fixed volume for each sample processed for MS. We then converted to volume by using the arbitrary mean corpuscular volume (MCV) of […] per cell that is the most frequently adopted (3).
Each plasma sample was extracted with acetonitrile: methanol containing internal standard (Verapamil).

`C[C@]12C=CC(=O)C=C1CC[C@@H]1[C@@H]2[C@@H](O)C[C@@]2(C)[C@H]1C[C@H]1O[C@@H](c3ccc(CC45CC(N)(C4)C5)cc3)O[C@]12C(=O)CO` [INX-SM-3, (6aR,6bS,7S,8aS,8bS,10R,11aR,12aS,12bS)-10-(4-((3-aminobicyclo[1.1.1]pentan-1-yl)methyl)phenyl)-7-hydroxy-8b-(2-hydroxyacetyl)-6a,8a-dimethyl-1,2,6a,6b,7,8,8a,8b,11a,12,12a,12b-dodecahydro-4H-naphtho[2′,1′:4,5]indeno[1,2-d][1,3]dioxol-4-one]: the “inhibition of IL-1β production” value was “inhibit; also recorded: robust inhibition” with human PBMC; “show inhibition in IL-1β production; also recorded: again the most potent compound among these compounds tested” in data set [1] (Experiment 2: free payload 1000-1 nM, 24 hr, n=1 donor); “robust inhibition in IL-1B production” in data set [1] (Experiment 8: free payload 1000-0.5 nM). Also, the “inhibition of IL-6 production” value in the data set on human PBMC is “inhibit”. For the same molecule, in data set [1] (Experiment 1: free payload 1000-1 nM, 1 ng/ml LPS, 24 hr, n=1 donor), the “inhibition of IL-1β and IL-6 production” value was “inhibit both IL-1β and IL-6 production; also recorded: the most potent compound among these three”. In addition, the “FKBP5 transcription in Tregs” value in the data set with FKBP5 [2] (Experiment 3: 20 nM payload, 2 donors) is “lead to increased FKBP5 transcription”.

Turning to `C[C@]12C=CC(=O)C=C1CC[C@@H]1[C@@H]2[C@@H](O)C[C@@]2(C)[C@H]1C[C@H]1O[C@@H](c3ccc(Cc4cccc(N)c4)cc3)O[C@]12C(=O)CO` [free J payload, reference compound], in the data set with FKBP5 [2] (Experiment 1: 20 nM payload, 1 day), the “FKBP5 transcription in monocytes and B cells” value is “robust increase in FKBP5 transcription was observed with free J payload in both monocytes and B cells”.

Turning to `C[C@]12C=CC(=O)C=C1CC[C@@H]1[C@@H]2[C@@H](O)C[C@@]2(C)[C@H]1C[C@H]1O[C@@H](c3ccc(OC4CC5(CC(NC(=O)[C@H](CCC(=O)O)NC(=O)CNC(=O)CBr)C5)C4)cc3F)O[C@]12C(=O)CO` (stereo partly drawn) [INX A5, (S)-4-(2-(2-bromoacetamido)acetamido)-5-((6-(3-fluoro-4-((6aR,6bS,7S,8aS,8bS,10R,11aR,12aS,12bS)-7-hydroxy-8b-(2-hydroxyacetyl)-6a,8a-dimethyl-4-oxo-2,4,6a,6b,7,8,8a,8b,11a,12,12a,12b-dodecahydro-1H-naphtho[2′,1′:4,5]indeno[1,2-d][1,3]dioxol-10-yl)phenoxy)spiro[3.3]heptan-2-yl)amino)-5-oxopentanoic acid], in data set [3], the “controlling cytokine response in PRM when dosed 14 days early (conclusions)” value is listed as “significant potency in controlling cytokine response in PRM when dosed 14 days early”. The “potency of conjugated linker payloads over INX J (conclusions)” value in data set [1] is “enhanced potency”. In the data set on FKBP5 [4], the “FKBP5 induction when dosed 14 days early (conclusions)” value is “still display significant potency when dosed 14 days early in regard to FKBP5 induction”.

As to `C[C@]12C=CC(=O)C=C1CC[C@@H]1[C@@H]2[C@@H](O)C[C@@]2(C)[C@H]1C[C@H]1O[C@@H](c3ccc(CC4CC5(C4)CC(NC(=O)[C@H](CC(N)=O)NC(=O)CNC(=O)CBr)C5)cc3)O[C@]12C(=O)CO` (stereo partly drawn) [INX A11, (S)-2-(2-(2-bromoacetamido)acetamido)-N1-(6-(4-((6aR,6bS,7S,8aS,8bS,10R,11aR,12aS,12bS)-7-hydroxy-8b-(2-hydroxyacetyl)-6a,8a-dimethyl-4-oxo-2,4,6a,6b,7,8,8a,8b,11a,12,12a,12b-dodecahydro-1H-naphtho[2′,1′:4,5]indeno[1,2-d][1,3]dioxol-10-yl)benzyl)spiro[3.3]heptan-2-yl) succinamide], the “controlling cytokine response in PRM when dosed 14 days early (conclusions)” value in data set [3] is “significant potency in controlling cytokine response in PRM when dosed 14 days early”. Moreover, the “potency of conjugated linker payloads over INX J (conclusions)” value in data set [1] was “enhanced potency”. Also, in the data set on FKBP5 [4], the “FKBP5 induction when dosed 14 days early (conclusions)” value is reported as “still display significant potency when dosed 14 days early in regard to FKBP5 induction”.

On to `C[C@]12C=CC(=O)C=C1CC[C@@H]1[C@@H]2[C@@H](O)C[C@@]2(C)[C@H]1C[C@H]1O[C@@H](c3ccc(CC45CC(NC(=O)[C@H](CCC(=O)O)NC(=O)CNC(=O)CSC[C@H](N)C(=O)O)(C4)C5)cc3)O[C@]12C(=O)CO` [P-cys, (S)-4-(2-(2-(((R)-2-amino-2-carboxyethyl)thio)acetamido)acetamido)-5-((3-(4-((6aR,6bS,7S,8aS,8bS,10R,11aR,12aS,12bS)-7-hydroxy-8b-(2-hydroxyacetyl)-6a,8a-dimethyl-4-oxo-2,4,6a,6b,7,8,8a,8b,11a,12,12a,12b-dodecahydro-1H-naphtho[2′,1′:4,5]indeno[1,2-d][1,3]dioxol-10-yl)benzyl)bicyclo[1.1.1]pentan-1-yl)amino)-5-oxopentanoic acid], for which, in data set [5], the “serum level by day 8 (192 hr) post injection” value was “below detection” and the “time of peak concentration in serum” value was roughly 12 h. Besides, the Kp in data set [5] (cynomolgus monkey, in vivo, read-out: intracellular (PBL) levels as compared to serum) was 100.
